Source: patent US20180265867A1, “NUCLEIC ACID MOLECULES WITH ENHANCED ACTIVITY” (priority 2015, published 2018)
{Cy3} = Cy3 fluorescent dye label; d = 2'-deoxy (DNA); r = 2'-OH (RNA)

Experiments:
GAPDH = GAPDH gene knockdown in MG63 cells by RT-PCR; type: cell-based, human; conditions: MG63 cells, carrier-free transfection, 50 nM, 24 h
Method: At 70% confluency, a day prior to transfection, the cells were seeded at a density of 35 000 cells in a 24-well cell culture plate to achieve 60-80% confluence at the day of transfection. Cell penetrating siRNAs (cpRNAs) of different lengths were transfected at 50 nM concentrations with Magnet Assisted Transfection (MATra-si) reagent for siRNAs (IBA GmbH, Göttingen, Germany) according to the manufacturers' protocols. Briefly, the siRNA was mixed with MATra-si reagent composed of supermagnetic ironoxide nanoparticles and incubated for 20 min. A complex was formed which was added to the cells to be transfected. A strong magnetic force was applied beneath the cells for 15 min. This forced the complex to be drawn into the cells by the magnetic field, and as a result the siRNA was delivered directly into the cytosol. For carrier free transfection experiments, cpRNAs were simply added to cells lines MG63, HOB, HCT116, fibroblasts and keratinocytes at 50 nM concentrations. Cells were also transfected with negative control siRNA (scrambled sequence) and cells left untreated were taken as controls. Each transfection was performed in triplicate. Post transfection, cells were incubated for 24 hours.
For the experiments involving lysosomotropic agent chloroquine (CQ), CQ was first neutralized to pH 7.4 using 1 M NaOH prior to use. MG63 cells were transfected with dT2, dT5, dT8, (dT5)2, as(dT5), and bl(dT5) siRNA in presence or absence of 100 μM CQ or using MATra-si and incubated for 24 h. Similar experiments were performed for other cpRNAs namely, dA5, dT5, dG5, (dT5)2, rA5 and dC5. For the control experiment, cells were either left untreated or transfected with negative control siRNA (scrambled sequence). Each transfection experiment was performed in triplicate.
After performing transfection experiments for 24 h, 48 h and 72 h respectively, total RNA was isolated from cells by adding 500 μl of lysis buffer (Qiagen, Germany), followed by homogenization of cell lysates using QIAshredder (Qiagen, Germany). RNA was extracted from cell lysates by RNeasy Mini Kit (Qiagen, Germany). All RNA samples were treated with DNase using TURBO-DNAfree (Ambion, USA). Agilent 2100 BioAnalyzer (Agilent Technologies, Palo Alto, Calif.) was used to confirm high quality of all RNA samples, which reports an RNA Integrity Number (RIN) that takes into account the entire electrophoretic RNA trace produced in the analysis. A RIN of greater than or equal to seven indicates the RNA is suitable for high stringency applications.
cDNA synthesis was performed in triplicate using total RNA reverse transcribed using High Capacity cDNA reverse transcription kit (Applied Biosystems, USA), with non-template control added to ensure a lack of signal in assay background. Reactions were incubated on a 96-well Applied Biosystems 9800 Fast Thermal Cycler PCR System at 37° C. for 60 min followed by 95° C. for 5 min. The real-time PCR reactions were carried out with 10 μl of 2×TaqMan® Universal PCR Master Mix, no AmpErase® UNG (Applied Biosystems, USA), 9 μl diluted cDNA, and 1 μl of TaqMan gene specific assay mix in a 20 μl final reaction volume. Reference gene beta-actin (ACTB) (Applied Biosystems, USA) was selected as control for normalization of TaqMan data. The assay included a no-template control, a standard curve of five serial dilution points (in steps of 3-fold) of cDNA mixture. Probes specific for IFN-α (Hs01022060_m1), IFN-β (Hs01077958_s1), IFN-γ (Hs00985251_m1), ACTB(Hs01060665_g1) and GAPDH (Hs02758991_g1) were purchased from Applied Biosystems. The amplification was carried out using the 7500 Fast Real-Time PCR System (Applied Biosystems, USA) using a 40-cycle program. The 7500 software automatically calculates raw Ct (cycle threshold) values. Data from samples with a Ct value equal to or below 35 were further analyzed. […]

[1] = test system: MG63, HOB, HCT116, HEK293 and MC3T3 cells; test: Flow cytometry cellular uptake of Cy3-cpRNA in different cells; type: cell-based, human; mouse; conditions: 50 nM, 24 h at 37° C., carrier-free
Method: To determine the amount of cellular uptake of cpRNA by flow cytometry, Cy3 labeled cpRNA (Table 3) was used for transfection experiments using different types of cells (MG63, HOB, HCT116, HEK293 and MC3T3). Cells were seeded at a density of 1×10^5 cells per well and cultured for 24 hours. Thereafter, cells were transfected with 50 nM Cy3-cpRNA, with control wells left untreated. Post-transfection, cells were incubated for further 24 h at 37° C., trypsinised and washed with PBS containing 2 mM EDTA and 0.5% human serum albumin. The cells were then suspended in PBS and subjected to fluorescence analysis on a FACSCanto II (BD Biosciences) BioVis platform, scilife laboratory. The images were analyzed using FlowJo software (version 7.6; TreeStar, Ashland, Oreg.).

MG63 cells [2] = test: Flow cytometry uptake kinetics and ODN2006 blocking in MG63 cells; type: cell-based, human; conditions: MG63 cells, 50 nM, 37° C.
Method: To determine cpRNA cellular uptake kinetics, FACS experiments were repeated as mentioned above using MG63 cells, where Cy3-cpRNA was treated for different time points. Briefly, Cy3-cpRNA (50 nM) was added to cells, followed by incubation for 0.5 h, 1 h, 1.5 h, 2 h, 3 h and 4 h respectively. The cells were subsequently trypsinised and analyzed by FACS as mentioned above.
To perform […] blocking studies, seeded MG63 cells were incubated with 600 nM 3′-FITC labeled ODN2006 for 1 h, followed by addition of 50 nM cpRNA. Cells were incubated for additional 0.5 h, 1 h, 1.5 h, 2 h, 3 h and 4 h respectively, trypsinised and analyzed by FACS analysis as mentioned above.
To verify if the uptake mechanism of cpRNA was analogous to viral RNA and the RNA mimic polyriboinosinic:polyribocytidylic acid or poly(I:C), blocking studies were performed using the Btype single-stranded DNA sequence ODN2006 which share a common uptake receptor. This synthetic phosphorothioate modified oligo, though initially identified as a TLR9 agonist, blocks cellular uptake of viral RNA and poly(I:C) by preferentially competing with the common RNA uptake receptor. Blocking experiment were performed by pre-incubating the cells with FITC labeled ODN2006 for 1 h, followed by the addition of Cy3-labeled cpRNA. The blocking studies and cellular uptake was monitored using FACS analysis at different time points for up to 4 h. As a control experiment, the uptake kinetics was performed in the absence of FITC labeled ODN2006. […] These experiments verified the involvement of an alternate uptake mechanism and indicated the presence of a ubiquitous RNA capture receptor that required ˜1 h of maturation time before the endocytosis process could initiate.

[3] = Thermal denaturation (Tm) of siRNA duplexes; type: physicochemical
Method: Thermal denaturation studies of siRNA was carried out in phosphate buffer, pH 7.0, containing 140 mM KCl. UV absorbance was monitored at 260 nm in the temperature range from 40 to 95° C. using a Lambda 35 UV-Vis spectrophotometer equipped with a Peltier temperature programmer with a heating rate of 0.5° C./min. Samples (1 μM RNA) were denatured at 90° C. for 3 min followed by slow cooling to 27° C. prior to the measurements. Tm values were obtained from the maxima of the first derivatives of the melting curves. All Tm values given are the averages of three independent sets of experiments (±0.3° C. error range).

MG63 and HOB cells = test: Cell proliferation / toxicity by MTS assay; type: cell-based, human; conditions: 50 and 100 nM, 24 h post transfection
Method: Cell proliferation was assessed by MTS (3-(4,5-dimethylthiazol-2-yl)-5-(3-carboxymethoxyphenyl)-2-(4-sulfophenyl)-2H-tetrazolium, inner salt) reagent assay: MG63 cells were seeded at a density of 35 000 cells in 24-well culture plates, and cultured for 24 hours as mentioned above. Cells were transfected with 50 nM or 100 nM concentrations of cpRNA and negative control siRNAs with or without MATra-si, while control wells were left untreated. Each transfection experiment was performed in triplicate. Post-transfection, cells were incubated for 24 hours at 37° C. The viable cells were evaluated by MTS assay, using CellTiter 96®AQueousOne Solution Cell Proliferation Assay (Promega, USA) according to the manufacturer's protocol. The enzymatic reduction in MTS to formazan was quantified by an ELISA plate reader (Thermo Scientific) at 490 nm.
Thus, the role of siRNA topography on immune activation and cellular toxicity was investigated because increased RNA length has been reported to cause toxicity with increased interferon (IFN)-β expression. toxicity studies were performed using the MTS assay with two concentrations of GAPDH siRNA (50 and 100 nM) with different overhang lengths (dT2, dT5, and dT8) in MG63 and HOB cells and compared it with the scrambled siRNA sequence (FIG. 5).

MG63 cells [4] = conditions: no own experiment described; cited from earlier work

Cy3 cpRNA: GAPDH cpRNA with Cy3 at 5′-end of sense strand (SEQ ID NO: 12, dT5), antisense SEQ ID NO: 2 (sense CCGAGCCACAUCGCUCAGATTTTT; antisense UCUGAGCGAUGUGGCUCGGTT; sense: sugars from the 5' end r19 d5, 5' {Cy3}, backbone not given here; antisense: sugars from the 5' end r19 d2, backbone not given here)
GAPDH gene knockdown (GAPDH): 80%
cellular uptake by flow cytometry ([1]; listed as Cy3-labeled cpRNA): near quantitative cellular uptake
cellular uptake by flow cytometry ([1]; listed as Cy3 labeled cpRNA): quantitatively taken up by all the cells
time after which cellular uptake was initiated (MG63 cells [2]): 1 h
time in which uptake finished after initiation (MG63 cells [2]): ≤ 2 h

dT8: GAPDH siRNA, sense SEQ ID NO: 4 with dT8 3′-overhang, antisense SEQ ID NO: 2 with dT2 (sense CCGAGCCACAUCGCUCAGATTTTTTTT; antisense UCUGAGCGAUGUGGCUCGGTT; sense: sugars from the 5' end r19 d8, backbone not given here; antisense: sugars from the 5' end r19 d2, backbone not given here)
Tm ([3]; 7.5 mM phosphate buffer pH 7.0 containing 140 mM KCl, 1 μM strands, 40-95° C.): 79.8 °C
Δ Tm ([3]; Tm relative to canonical siRNA (dT2)): −1.4 °C
drop in Tm ([3]; as compared to canonical siRNA): 1.5 °C
GAPDH gene knockdown (GAPDH): 50%
cytotoxicity (MTS assay) (MG63 and HOB cells): do not impose toxicity

polyriboinosinic:polyribocytidylic acid [poly(I:C)]
uptake kinetics (MG63 cells [4]): ≤ 5 min
